In one assay the test system is ZR-75-1 cells. Briefly: Proliferation assay in ZR-75-1 cells. Type of assay: cell-based. Conditions: Homo sapiens, 144 h, Alamar Blue, read-out: ZR75-1 proliferation assay, EC50[M] (arithmetic mean). An excerpt:
(§1) For compound characterization cell survival assays were routinely run in two cell lines. ZR-75-1 is a breast carcinoma cell line containing a focal KAT6A amplification and high KAT6A protein expression. Proliferation of this cell line is inhibited upon treatment with KAT6A inhibitors. As a negative control cell line MDA-MB-436 were used. These cells carry a […] deletion of the KAT6A gene, have a low KAT6A protein expression and are not growth inhibited upon treatment with KAT6A inhibitors.
(§2) For measurements cell lines were plated at the below indicated concentration per […] in 96-well plates in a humidified incubator at 37° C. and 5% CO2.
(§3) ZR-75-1 (ATCC, CRL-1500; breast carcinoma); 3000 cells per well; culture medium: RPMI 1640 (Biochrom #FG 1215) medium containing 2.5% FBS (Biochrom #S0615). LCLC-97TM1 (DSMZ, ACC 388; large cell lung carcinoma); 6000 cells per well; culture medium: RPMI 1640 (Biochrom #FG 1215) medium containing 2.5% FBS (Biochrom #S0615). MDA-MB-436 (CLS, 300278; breast adenocarcinoma); 3000 cells per well; culture medium: DMEM/Ham's F12 (Biochrom #FG 4815) medium containing 2.5% FBS (Biochrom #S0615).
(§4) Each sample was prepared as triplicate and rim wells were excluded. Plates were incubated at 37° C. and 5% CO2 for 144 h. Cell viability was measured by adding 10 μL of Alamar Blue Reagent (Invitrogen #DAL 1100) and plates were incubated for 2 h at 37° C. and 5% CO2. Fluorescence was measured at 590 nm wavelength with a Tecan Spark or Victor X3 MTP-Reader (PerkinElmer).

For assay [1], the system named is ESR1 transcription in MVLN cells. The experiment in a line: Repression of ESR1 transcription, MVLN luciferase reporter assay. Type of assay: cell-based. Conditions: Homo sapiens, luciferase signal after 24 h, read-out: MVLN reporter assay, IC50[M] (arithmetic mean). The gist of the method: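 MVLN cells stably carry an ER-responsive vitellogenin A2 element driving luciferase. After 24 h of compound treatment, luciferase was read in lysate as the measure of ERα transcription. Alamar Blue fluorescence (530/590 nm, 2 h) was read first to control for cell loss; samples were run in duplicate.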
(In general: Reporter assays use an easily measured gene product as a stand-in for the process of interest.)

A further assay addresses T1, KAT6A (Homo sapiens, UniProt Q92794).
T1 construct: Recombinant human His-tagged Kat6a protein (amino acids 194-810); His; made in house; host or cells: Baculovirus-infected Sf9 insect cells
Briefly: Kat6a activity assay (TR-FRET, acetylation of biotinylated histone H4 peptide). Conditions: recombinant human His-tagged Kat6a (amino acids 194-810), 60 mins at 22° C., read-out: KAT6A-DPF/HAT domain IC50 [mol/l] (arithmetic mean). The format is biochemical. The procedure, abridged: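 His-tagged human Kat6a (aa 194-810, Sf9-expressed) with compound (0.01-20 μM) for 60 min at 22° C., pH 8 Tris buffer, 220 nM biotinylated H4 peptide (aa 1-24) and 600 nM acetyl-CoA. Acetyl-K8 detected by Eu-antibody/SA-XL665 TR-FRET (665/620 nm ratio); IC50 from 4-parameter fit.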
Background: TR-FRET usually uses a lanthanide donor and a delayed reading to cut background.

In the next assay the test system is MDA-MB-436 cells. Briefly: Proliferation assay in MDA-MB-436 cells (negative control cell line). Type of assay: cell-based. Conditions: Homo sapiens, 144 h, Alamar Blue, read-out: MDA-MB-436 proliferation assay, EC50[M] (arithmetic mean).
Description: as §1, §2, §3, §4
(In general: Resazurin is reduced to fluorescent resorufin, in cell work by metabolically active cells.)

The target in the next assay is T2, KAT6B (Homo sapiens, UniProt Q8WYB5).
T2 construct: fused on or other part: N-terminal GST tag
Briefly: Kat6b activity assay (TR-FRET, acetylation of biotinylated histone H4 peptide). Type of assay: biochemical. The note with it: recombinant human GST-tagged Kat6b (431-end), 30 mins at 22° C., read-out: KAT6B activity assay IC50 [mol/l] (arithmetic mean). From the text: Kat6b inhibitory activities of the compounds described in the present invention were quantified using a Fluorescence Resonance Energy Transfer (TR-FRET) assay which measures acetylation of a synthetic, biotinylated Histone-H4-derived peptide by the enzyme.
Recombinant human GST-tagged Kat6b protein (431-end, N-terminal GST-tag), purified from Baculovirus-infected insect cells (Sf9), was purchased from SignalChem (#K315-381BG). Histone H4 peptide (amino acids 1-24, […]-VLRD-K(Btn)-amide), which was used as substrate, was synthesized by Biosyntan GmbH, Berlin, Germany. Acetyl Coenzyme A was purchased from Sigma-Aldrich (#A-2056).
Kat6b was incubated for 30 mins at 22° C. in the presence of different concentrations of test substances (0 μM, and within the range 0.01-20 μM) in assay buffer [25 mM Tris/HCl pH 8, 1 mM EGTA, 2.5 mM Glutathion, 0.02% Chicken Albumin, 0.05% Pluronic F127, 25 mM NaCl, 500 nM H4 peptide and 600 nM Acetyl Coenzyme A].
The reaction was stopped by addition of Detection Solution (25 mM HEPES pH 7.5, 0.1% BSA, 22 nM SAXL665 (Cisbio #610SAXLE), 100 μM Anacardic Acid (Enzo #ALX-270-381), 1 nM Anti-Histone H4 (ACETYL K8) Antibody (ABCAM #AB15823), 0.5 nM Anti-Rabbit IgG Eu (Perkin Elmer #AD0083).
The fluorescence emission at 620 nm and 665 nm after excitation at 330-350 nm was measured in a TR-FRET measuring instrument, for instance a Rubystar or a Pherastar (both from BMG Lab Technologies, Offenburg, Germany) or a Viewlux (Perkin-Elmer). The ratio of the emission at 665 nm and at […] was used as indicator of the amount of acetylated peptide.
The resulting data (ratio) were normalized, taking 0% inhibition as the mean value of control measurements where all reagents were included. In this case 50 nl DMSO were used instead of compounds. […] IC50 values were determined by regression analysis based on a 4 parameter equation (minimum, maximum, ICM, Hill; Y=Max+(Min−Max)/(1+(X/ICso) Hill) using the Screener Software (Genedata).

In a further assay the test system is LCLC-97TM1 cells. Briefly: Proliferation assay in LCLC-97TM1 cells. The note with it: Homo sapiens, 144 h, Alamar Blue, read-out: LCLC97TM1 proliferation assay, EC50[M] (arithmetic mean). The format is cell-based. Here is the method:
as §2, §3, §4

The structures appear in SMILES notation. pIC50: −log10 of the molar value.

Consider 15 compounds from patent publication US20240287048A1, “SUBSTITUTED ACYL SULFONAMIDES FOR TREATING CANCER” (The Broad Institute, Inc., priority 2020, published 2024).

In general, IC50 refers to the point on the concentration scale where inhibition reaches its midpoint.

T1 sequence (Q92794 194-810): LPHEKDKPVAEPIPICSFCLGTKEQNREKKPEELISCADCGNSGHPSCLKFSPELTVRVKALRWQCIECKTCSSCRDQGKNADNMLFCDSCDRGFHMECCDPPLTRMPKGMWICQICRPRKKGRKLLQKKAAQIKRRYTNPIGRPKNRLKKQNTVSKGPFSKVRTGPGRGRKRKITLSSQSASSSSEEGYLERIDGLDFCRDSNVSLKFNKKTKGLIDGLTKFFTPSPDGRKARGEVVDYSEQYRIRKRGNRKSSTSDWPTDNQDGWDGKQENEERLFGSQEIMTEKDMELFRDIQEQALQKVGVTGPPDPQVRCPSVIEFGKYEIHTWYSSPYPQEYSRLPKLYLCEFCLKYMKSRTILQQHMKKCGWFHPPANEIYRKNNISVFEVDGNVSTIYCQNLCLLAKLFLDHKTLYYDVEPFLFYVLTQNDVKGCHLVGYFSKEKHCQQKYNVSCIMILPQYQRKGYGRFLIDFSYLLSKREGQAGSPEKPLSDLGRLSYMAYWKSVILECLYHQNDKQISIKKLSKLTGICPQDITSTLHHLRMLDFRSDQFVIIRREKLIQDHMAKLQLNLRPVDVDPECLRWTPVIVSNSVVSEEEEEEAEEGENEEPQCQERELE
T2 sequence (Q8WYB5 723-2073 limits assumed): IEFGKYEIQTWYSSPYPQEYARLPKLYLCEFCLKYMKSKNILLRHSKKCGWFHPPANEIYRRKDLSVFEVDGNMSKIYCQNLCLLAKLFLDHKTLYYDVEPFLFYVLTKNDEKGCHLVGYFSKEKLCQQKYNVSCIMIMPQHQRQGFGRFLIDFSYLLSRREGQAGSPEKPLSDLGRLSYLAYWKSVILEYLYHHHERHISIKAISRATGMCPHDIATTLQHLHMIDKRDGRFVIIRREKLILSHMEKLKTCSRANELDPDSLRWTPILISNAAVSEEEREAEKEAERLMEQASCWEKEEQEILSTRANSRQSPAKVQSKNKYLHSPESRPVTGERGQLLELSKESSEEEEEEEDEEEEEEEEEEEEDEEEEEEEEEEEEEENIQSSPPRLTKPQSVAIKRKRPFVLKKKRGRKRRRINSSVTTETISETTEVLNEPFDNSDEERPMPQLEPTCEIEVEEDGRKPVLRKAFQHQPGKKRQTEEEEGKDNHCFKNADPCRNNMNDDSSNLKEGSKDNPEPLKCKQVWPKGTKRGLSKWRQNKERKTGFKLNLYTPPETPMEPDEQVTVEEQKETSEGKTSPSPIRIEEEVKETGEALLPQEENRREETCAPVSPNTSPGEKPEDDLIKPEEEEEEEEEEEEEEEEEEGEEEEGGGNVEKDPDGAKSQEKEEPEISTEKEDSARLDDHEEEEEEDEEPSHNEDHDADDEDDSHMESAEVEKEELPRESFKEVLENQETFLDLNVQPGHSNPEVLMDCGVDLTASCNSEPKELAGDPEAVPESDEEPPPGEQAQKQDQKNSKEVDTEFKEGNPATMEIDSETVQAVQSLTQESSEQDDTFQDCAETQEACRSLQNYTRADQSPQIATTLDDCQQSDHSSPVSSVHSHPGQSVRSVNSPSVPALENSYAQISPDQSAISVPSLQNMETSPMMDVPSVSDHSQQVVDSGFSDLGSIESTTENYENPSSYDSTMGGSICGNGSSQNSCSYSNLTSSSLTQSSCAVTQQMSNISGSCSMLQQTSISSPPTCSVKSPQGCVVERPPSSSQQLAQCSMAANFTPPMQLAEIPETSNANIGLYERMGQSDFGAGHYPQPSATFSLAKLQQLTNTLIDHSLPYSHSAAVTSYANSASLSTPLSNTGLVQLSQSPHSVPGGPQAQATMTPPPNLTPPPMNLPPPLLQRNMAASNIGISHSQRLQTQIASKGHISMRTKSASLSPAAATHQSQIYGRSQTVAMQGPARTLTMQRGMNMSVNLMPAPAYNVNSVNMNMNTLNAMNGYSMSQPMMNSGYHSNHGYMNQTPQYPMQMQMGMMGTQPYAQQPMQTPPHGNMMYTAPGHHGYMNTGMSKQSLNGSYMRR

For `Cc1cc(C)c2cc(C(=O)NS(=O)(=O)c3ccccc3-c3ccccc3)oc2c1` [Example 9, N-([1,1′-biphenyl]-2-sulfonyl)-4,6-dimethyl-1-benzofuran-2-carboxamide], the values for the EC50 in the assay with ZR-75-1 cells and in the assay on MDA-MB-436 cells were 1.81e-05 M and more than 2e-05 M, respectively. Moreover, the IC50 in assay [1] came out at 2.5e-06 M. Also, the pIC50 at KAT6A was 7.04; at KAT6B, 6.66.
Taken in the same sequence, the figures for `Cc1cc(C)c2cc(C(=O)NS(=O)(=O)c3ccccc3-c3cccc(Cl)c3)oc2c1` [Example 11, N-(3′-chloro[1,1′-biphenyl]-2-sulfonyl)-4,6-dimethyl-1-benzofuran-2-carboxamide] were 1.17e-05 M, 1.42e-05 M, 5.85e-06 M, 7.20 and 6.52.
On to `Cc1ccc2cccc(S(=O)(=O)NC(=O)c3cc4c(F)cc(C5CC5)cc4o3)c2n1` [Example 22, 6-Cyclopropyl-4-fluoro-N-(2-methylquinoline-8-sulfonyl)-1-benzofuran-2-carboxamide], for which the EC50 with ZR-75-1 cells came out at 1.26e-06 M. Besides, the IC50 in assay [1] turned out to be 2.81e-07 M. Further, the values for the pIC50 on KAT6A and on KAT6B were 8.02 and 7.65, respectively.
In the case of `Cc1cc(C)c2cc(C(=O)NS(=O)(=O)c3cccc4ccc(C)nc34)oc2c1` [Example 21, 4,6-Dimethyl-N-(2-methylquinoline-8-sulfonyl)-1-benzofuran-2-carboxamide], the results for the EC50 with ZR-75-1 cells, in the assay on MDA-MB-436 cells and with LCLC-97TM1 cells were 1.61e-06 M, more than 2e-05 M and 3.47e-06 M, respectively. Also, in assay [1], the IC50 amounted to 1.17e-06 M. For the same compound, the pIC50 at KAT6A is 7.57; on KAT6B, 7.27.
As to `Cc1cc(C)c2cc(C(=O)NS(=O)(=O)c3ccccc3-c3ccccc3C)oc2c1` [Example 6, 4,6-Dimethyl-N-(2′-methyl[1,1′-biphenyl]-2-sulfonyl)-1-benzofuran-2-carboxamide], the EC50 in the assay on ZR-75-1 cells and in the assay on MDA-MB-436 cells was more than 2e-05 M each time. Moreover, the IC50 in assay [1] amounted to 5.55e-06 M. The pIC50 is 6.89 on KAT6A and 6.61 at KAT6B.
For the compound `CC(C)c1ccc2cc(C(=O)NS(=O)(=O)c3ccccc3)oc2c1` [Example 56, N-(Benzenesulfonyl)-6-(propan-2-yl)-1-benzofuran-2-carboxamide], the EC50 in the assay on ZR-75-1 cells and in the assay with MDA-MB-436 cells was more than 2e-05 M throughout. For the same compound, the IC50 in assay [1] amounted to 1.52e-05 M. Further, the pIC50 at KAT6A was 5.81; on KAT6B it was 5.40.
With `Cc1ccc(S(=O)(=O)NC(=O)c2cc3c(C)cc(C)cc3o2)c(-c2ccccc2)c1` [Example 7, 4,6-Dimethyl-N-(5-methyl[1,1′-biphenyl]-2-sulfonyl)-1-benzofuran-2-carboxamide], the EC50 in the assay on ZR-75-1 cells and with MDA-MB-436 cells was more than 2e-05 M throughout. The IC50 in assay [1] came to 4.54e-06 M. The pIC50 on KAT6A is 7.06; at KAT6B it was 6.94.
For the compound `COc1cc(C)cc2oc(C(=O)NS(=O)(=O)c3ccc(C)cc3-c3ccccc3)cc12` [Example 12, 4-Methoxy-6-methyl-N-(5-methyl[1,1′-biphenyl]-2-sulfonyl)-1-benzofuran-2-carboxamide], the EC50 in the assay on ZR-75-1 cells is 1.03e-05 M; with MDA-MB-436 cells it was more than 2e-05 M. Further, in assay [1], the IC50 was determined as 6.05e-06 M. For the same compound, the pIC50 at KAT6A was 6.40; at KAT6B it was 6.43.
On the same counts, the results for `COc1cc(C)cc2oc(C(=O)NS(=O)(=O)c3ccccc3-c3ccccc3)cc12` [Example 10, N-([1,1′-biphenyl]-2-sulfonyl)-4-methoxy-6-methyl-1-benzofuran-2-carboxamide] are 1.39e-05 M, more than 2e-05 M, 1e-05 M, 6.03 and 5.95.
For the compound `CCOc1ccccc1S(=O)(=O)NC(=O)c1cc2c(OC)cc(C)cc2o1` [Example 13, N-(2-Ethoxybenzene-1-sulfonyl)-4-methoxy-6-methyl-1-benzofuran-2-carboxamide], the EC50 is 1.02e-05 M with ZR-75-1 cells and more than 2e-05 M with MDA-MB-436 cells. Further, the IC50 in assay [1] is 5.08e-06 M. Also, the pIC50 on KAT6A is 5.95; on KAT6B, 5.76.
On to `CC(C)c1ccc2cc(C(=O)NS(=O)(=O)c3ccccc3Cl)oc2c1` [Example 73, N-(2-chlorobenzenesulfonyl)-6-(propan-2-yl)-1-benzofuran-2-carboxamide], for which the values for the EC50 in the assay on ZR-75-1 cells, in the assay on MDA-MB-436 cells and in the assay with LCLC-97TM1 cells were 7.08e-06 M, more than 2e-05 M and more than 2e-05 M, respectively. Besides, the IC50 in assay [1] was 8.69e-06 M. The figures for the pIC50 on KAT6A and on KAT6B were 5.87 and 5.75, respectively.
Take `CC(C)c1ccc2cc(C(=O)NS(=O)(=O)c3ccccc3-c3ccccc3)oc2c1` [Example 54, N-{[1,1′-Biphenyl]-2-sulfonyl}-6-(propan-2-yl)-1-benzofuran-2-carboxamide]: the EC50 in the assay with ZR-75-1 cells was 5.75e-06 M; with MDA-MB-436 cells it was more than 2e-05 M; with LCLC-97TM1 cells, more than 2e-05 M. The IC50 in assay [1] was 3.02e-06 M. Moreover, the pIC50 at KAT6A is 6.33; at KAT6B it was 6.18.
On to `CCC(C)c1ccc2cc(C(=O)NS(=O)(=O)c3ccccc3-c3ccccc3)oc2c1` (stereo not shown) [Example 27, N-([1,1′-biphenyl]-2-sulfonyl)-6-(butan-2-yl)-1-benzofuran-2-carboxamide], for which the EC50 in the assay with ZR-75-1 cells and in the assay on MDA-MB-436 cells was more than 2e-05 M throughout. In addition, the 50% inhibitory concentration (IC50) in assay [1] was more than 2e-05 M. The figures for the pIC50 on KAT6A and at KAT6B were 5.69 and 5.04, respectively.
Regarding `Cc1ccc2cc(C(=O)NS(=O)(=O)c3ccccc3-c3ccccc3)oc2c1` [Example 2, N-([1,1′-biphenyl]-2-sulfonyl)-6-methyl-1-benzofuran-2-carboxamide], the EC50 in the assay on ZR-75-1 cells and with MDA-MB-436 cells was more than 2e-05 M in each case. For the same compound, the IC50 in assay [1] came out at 1.11e-05 M. The results for the pIC50 at KAT6A and at KAT6B were 6.05 and 5.65, respectively.
Take `O=C(NS(=O)(=O)c1ccccc1-c1ccccc1)c1cc2ccc(C(F)F)cc2o1` [Example 17, N-([1,1′-Biphenyl]-2-sulfonyl)-6-(difluoromethyl)-1-benzofuran-2-carboxamide]: the EC50 with ZR-75-1 cells was 6.12e-06 M; in the assay with MDA-MB-436 cells it was more than 2e-05 M. Moreover, the pIC50 is 5.89 on KAT6A and 5.59 at KAT6B.
